From PMC11513924, “Addressing the Intracellular Vestibule of the Plasmodial Lactate Transporter PfFNT by p-Substituted Inhibitors Amplifies In Vitro Activity” (Journal of Medicinal Chemistry, 2024)
Where a chain is given by its changes, count along the chain named. Like-named read-outs stand apart in the source and are kept apart here.

Experiments:
PfFNT = biological target: T1, PfFNT (Plasmodium falciparum, UniProt O77389); test: Yeast-based PfFNT 14C-lactate transport assay; assay type: cell-based
T1 construct: expressed in transfected cells; membranes solubilized
T1 sequence (O77389 1-309): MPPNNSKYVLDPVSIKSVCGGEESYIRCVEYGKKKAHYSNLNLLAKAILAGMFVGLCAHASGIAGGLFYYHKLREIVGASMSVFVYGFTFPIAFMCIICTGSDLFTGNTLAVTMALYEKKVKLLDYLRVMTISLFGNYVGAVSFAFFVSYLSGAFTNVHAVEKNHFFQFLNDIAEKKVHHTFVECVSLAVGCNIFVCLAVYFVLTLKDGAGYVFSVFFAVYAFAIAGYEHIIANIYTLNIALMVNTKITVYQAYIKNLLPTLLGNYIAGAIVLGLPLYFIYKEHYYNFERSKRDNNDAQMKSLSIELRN
Procedure: (§1) Lactate transport functionality of PfFNT was assayed as described before.[4] Briefly, Saccharomyces cerevisiae W303-1A jen1Δady2Δcells[32] (MATa, can1-100, ade2-loc, his3-11-15, leu2-3,-112, trp1-1-1, ura3-1, jen1::kanMX4, ady2::hphMX4) kindly provided by M. Casal expressing PfFNT was grown at 29 °C to an OD600 of 1 (±0.1). Harvested cells were resuspended to an OD600 of 50 (±5) in 50 mM HEPES/Tris, pH 6.8 (±0.1). 10–15 min prior to the assay, 80 μL of yeast suspension were added to 1 μL of DMSO with or without inhibitor in a 1.5 mL reaction tube at 18 °C. Twenty μL of L-lactate solution spiked with [1-^14C]-L-lactate (Hartmann Analytic) was added yielding a 1 mM inward gradient with 0.04 μCi label. Transport was stopped after 30 s by abrupt dilution with 1 mL of ice-cold water, vacuum filtration via GF/C filter membranes (Whatman), and washing with 7 mL of ice-cold water. The radio label was analyzed by liquid scintillation counting in 3 mL of scintillation cocktail (Rotiszint eco plus, Carl Roth) using a Packard TriCarb 2900 TR (PerkinElmer Inc.).
(§2) Transport assays in yeast were done in triplicate biological replicates. At least nine technical replicates were measured around the IC50 value, concentrations with no or full inhibition were determined from at least three technical replicates. EC50-values were determined from 2 to 4 biological replicates. IC50 and EC50 curves were fitted by the Hill equation with variable slope (Graph Pad Prism 10). Error bars denote ± SEM (for n ≥ 3) or ± range (for n = 2). For the EC50-value of 7a the error of the fitting of the curve is given. Cytotoxicity was determined from biological triplicates; error is shown as SEM.

PfFNT G107S = biological target: T2, PfFNT G107S (Plasmodium falciparum, UniProt O77389, G107S); test: Yeast-based 14C-lactate transport assay, PfFNT G107S resistance mutant; assay type: cell-based
T2 construct: expressed in transfected cells; host or cells: Saccharomyces cerevisiae (yeast transport assay; strain as for wild type, inferred from the shared method)
T2 sequence (O77389 1-309 G107S): T1 sequence (O77389 1-309) with G107S
Procedure: as §1, §2

[1] = system: Plasmodium falciparum 3D7 parasites; test: P. falciparum 3D7 culture growth assay in erythrocytes (in vitro activity); assay type: cell-based; settings: Plasmodium falciparum, 3D7, Erythrocyte; for activity at 0.05 µM / activity at 0.1 µM / activity at 0.2 µM / EC50: 48 h; for activity at 0.05 µM: read-out: % Growth at 50 nM (in vitro, 3D7); for activity at 0.1 µM: read-out: % Growth at 100 nM (in vitro, 3D7); for activity at 0.2 µM: read-out: % Growth at 200 nM (in vitro, 3D7); for EC50: read-out: EC50 (in vitro, 3D7)
Summary of the method: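 Parasitemia of P. falciparum 3D7 in erythrocyte culture was measured by flow cytometry and growth expressed as % of untreated control.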

[2] = Microsomal clearance and half-life; assay type: in vitro ADME, human; settings: for human liver microsomes Clint / half-life at 1 µM: 1 μM compound, 0.4 mg mL^–1 protein; for half-life at 1 µM: human, pooled human liver microsomes, pH 7.4, read-out: human liver microsomes t1/2
Procedure: Clearance, half-life and plasma protein binding were assayed at TGC LifeScience, Kolkata, India, as described before.[36] Test compounds were incubated in duplicate in 96-well plates at 1 μM concentration with pooled human liver microsomes in 0.1 M phosphate buffer, pH 7.4 (0.4 mg mL^–1 final protein concentration; XenoTech, Lenexa, KS) in the presence and absence of 1 mM NADPH. Metabolism reactions were stopped by addition of 300 μL of ice-cold acetonitrile containing carbamazepine at 0.0236 μg mL^–1 as an internal standard, collection and analysis of the supernatant by LC–MS/MS (Agilent Rapid Resolution HPLC, AB SCIEX 4500 MS). The relative loss of the test compound over time was used to determine the first order rate constant for calculation of the in vitro intrinsic clearance and half-life.[37] Plasma protein binding was determined by ultracentrifugation from pooled human plasma spiked with 5 μM test compound. Aliquots were transferred immediately (total plasma concentration) or after 1 h at 37 °C (protein bound fraction) to ice-cold acetonitrile containing 0.0236 μg mL^–1 carbamazepine as an internal standard, ultracentrifuged for 4 h at 37 °C (Beckman Optima L-80XP), and analyzed by LC–MS/MS (Agilent Rapid Resolution HPLC, AB SCIEX 4500 QTRAP MS).

Compound	IC50 (PfFNT; 14C-lactate transport, PfFNT wild type, read-out: IC50 (transport, yeast)) [µM]	IC50 (PfFNT G107S) [µM]	activity at 0.05 µM ([1]; 50 nM compound, % of untreated control) [%]	activity at 0.1 µM ([1]; 100 nM compound, % of untreated control) [%]	activity at 0.2 µM ([1]; 200 nM compound, % of untreated control) [%]	inhibition at 0.05 µM ([1]; 50 nM compound, 100 minus % growth, read-out: inhibitory activity at 50 nM (in vitro, 3D7)) [%]	EC50 ([1]; cultures in erythrocytes) [µM]	human liver microsomes Clint [2] [mL min^–1 kg^–1]	half-life at 1 µM [2] [h]	IC50 (PfFNT) [µM]	activity at 0.05 µM [1] [%]	activity at 0.1 µM [1] [%]	activity at 0.2 µM [1] [%]	EC50 [1] [µM]	microsomal clearance, times faster than that of 2 ([2]; human liver microsomes) [times]
CCCNc1ccc(C(=O)/C=C(\O)C(F)(F)C(F)(F)F)cn1 [7e, 4,4,5,5,5-Pentafluoro-3-hydroxy-1-(6-(propylamino)pyridin-3-yl)pent-2-en-1-one]	0.2 ± 0.02	0.63	7	4	2	93	0.0148	462.00	0.05						
CC(=O)Nc1ccc(C(=O)/C=C(\O)C(F)(F)C(F)(F)F)cn1 [8a, N-[5-(4,4,5,5,5-Pentafluoro-3-hydroxypent-2-enoyl)pyridin-2-yl]acetamide]		12						10.64	2.17	0.21 ± 0.01	50	23	8	0.0498	2.7
